Source: PubChem BioAssay AID1207 (NMMLSC, 2008)
Active and inactive are the calls of the source.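 How the source made its calls: active means score above 15, the percent gain in GFP-over-time curve area versus untreated cells across six hours; inactive means the rest.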 Peptide text beside a SMILES is read from it. * marks the point of attachment. Cbz = O=C(OCc1ccccc1)*

Tested on: yeast RJD 2456 GFP degradation, flow cytometry
Assay: PubChem AID 1207
Conditions: at 150 µM; hits give high values

Structure (SMILES) | GFP remaining
CC(=O)N1C(=O)C(=C2C=C(C)OC(C)=C2)c2ccccc21 | 0.705% (inactive)
CC(C)C[C@@H](C=O)NC(=O)[C@H](CC(C)C)NC(=O)[C@H](CC(C)C)NC(=O)OCc1ccccc1 (Cbz-Leu-Leu-Leu-aldehyde) | 1.91% (inactive)
